In the NIST ThermoML archive (doi:10.1021/je800895q):

CCCn1cc[n+](C)c1.F[P-](F)(F)(F)(F)F [1-methyl-3-propylimidazolium hexafluorophosphate]
Conditions	surface tension liquid-gas [mN/m]
318.33 K	46.41
318.39 K	46.75
323.12 K	46.09
323.13 K	46.33
328.13 K	45.76
328.14 K	45.93
332.59 K	45.52
332.63 K	45.2
333.28 K	45.82
338.14 K	45.65
338.21 K	45.14
343.25 K	44.83
343.26 K	44.86
348.02 K	44.66
348.08 K	44.54
352 K	44.38
352.08 K	44.31

CCCCn1cc[n+](C)c1.F[P-](F)(F)(F)(F)F [1-butyl-3-methylimidazolium hexafluorophosphate]
Conditions	surface tension liquid-gas [mN/m]
287.6 K	44.41
288.14 K	44.47
292.88 K	44.11
292.99 K	44.28
297.86 K	44.03
298.34 K	43.82
303.33 K	43.64
303.37 K	43.51
307.96 K	43.24
308.21 K	43.46
312.44 K	43.13
312.88 K	42.9
317.86 K	42.58
318.23 K	42.75
322.81 K	42.21
322.98 K	42.45
327.89 K	42.14
327.91 K	41.94
332.84 K	41.86
333.31 K	41.63
337.59 K	41.57
337.97 K	41.37
342.86 K	41.05
343.06 K	41.34
348.16 K	40.95
348.34 K	40.8
352.78 K	40.47
352.99 K	40.75

CCCCCCn1cc[n+](C)c1.F[P-](F)(F)(F)(F)F [1-hexyl-3-methylimidazolium hexafluorophosphate]
Conditions	surface tension liquid-gas [mN/m]
284.3 K	39.12
284.36 K	39.1
288.16 K	38.86
288.25 K	38.81
293.48 K	38.6
293.56 K	38.7
298.97 K	38.25
299.02 K	38.21
303.58 K	37.99
303.67 K	37.89
308.56 K	37.61
308.58 K	37.78
313.45 K	37.26
313.53 K	37.3
318.45 K	36.88
318.5 K	36.94
323.12 K	36.67
323.16 K	36.78
327.89 K	36.28
327.92 K	36.29
333.78 K	36.05
333.82 K	35.99
337.92 K	35.68
337.94 K	35.74
343.05 K	35.48
343.09 K	35.29
347.67 K	35.21
347.75 K	35.09
353.68 K	34.7
353.76 K	34.87

CCCCCCCC[n+]1ccn(C)c1.F[P-](F)(F)(F)(F)F [1-octyl-3-methylimidazolium hexafluorophosphate]
Conditions	surface tension liquid-gas [mN/m]
283.91 K	34.75
283.92 K	34.62
287.88 K	34.48
293.41 K	34.14
293.42 K	34.36
298.13 K	33.95
302.95 K	33.56
303 K	33.48
308.1 K	33.27
308.14 K	33.32
313.47 K	32.98
313.51 K	33.16
318.02 K	32.9
318.04 K	32.8
322.73 K	32.52
322.79 K	32.46
327.97 K	32.12
327.98 K	32.25
332.98 K	32.02
333.05 K	31.93
337.93 K	31.81
337.95 K	31.68
342.84 K	31.46
343 K	31.53
348.12 K	31.26
348.18 K	31.15
353.56 K	30.94
353.62 K	30.83
